From BindingDB's records for PubMed 38118394 (Second Military Medical University (Naval Medical …)
Peptide text beside a SMILES is read from it.

Target: Glypican-3 (Homo sapiens, UniProt P51654)
Test: Binding affinity to GPC3 (unknown origin) assessed as dissociation constant by fluorescence polarization assay

Chain of Glypican-3 (P51654 25-358 limits assumed): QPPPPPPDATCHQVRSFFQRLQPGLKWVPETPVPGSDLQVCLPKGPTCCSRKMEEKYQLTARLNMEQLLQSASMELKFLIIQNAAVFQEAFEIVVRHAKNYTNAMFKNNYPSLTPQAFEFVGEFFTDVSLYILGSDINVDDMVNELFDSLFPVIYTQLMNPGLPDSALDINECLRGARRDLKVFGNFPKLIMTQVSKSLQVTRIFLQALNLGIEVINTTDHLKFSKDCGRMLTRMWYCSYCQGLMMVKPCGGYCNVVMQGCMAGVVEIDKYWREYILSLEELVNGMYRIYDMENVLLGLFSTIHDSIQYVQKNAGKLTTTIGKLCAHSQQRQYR
Chain of Glypican-3 (P51654 359-554 limits assumed): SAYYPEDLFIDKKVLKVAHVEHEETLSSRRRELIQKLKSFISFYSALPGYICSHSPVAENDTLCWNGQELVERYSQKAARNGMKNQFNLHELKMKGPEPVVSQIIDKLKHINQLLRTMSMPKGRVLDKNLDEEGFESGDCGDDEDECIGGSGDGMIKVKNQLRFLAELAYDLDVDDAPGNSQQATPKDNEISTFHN

Kd, 300 nM:
C=Cc1c(C)c2cc3nc(c(CC(=O)O)c4[nH]c(cc5nc(cc1[nH]2)C(C)=C5CC)c(C)c4C(=O)NCCCC(=O)N[C@@H](CCCNC(=N)N)C(=O)N[C@@H](CC(C)C)C(=O)N[C@@H](CC(N)=O)C(=O)N[C@H](C(=O)NCC(=O)NCC(=O)N[C@H](C(=O)N[C@@H](Cc1ccc(O)cc1)C(=O)N[C@@H](Cc1ccccc1)C(=O)N[C@@H](CC(C)C)C(=O)N[C@H](C(=O)N[C@H](C(=O)N[C@@H](CCCNC(=N)N)C(=O)N[C@@H](CCC(N)=O)C(=O)O)[C@@H](C)O)[C@@H](C)O)[C@@H](C)O)C(C)C)[C@@H](CCC(=O)O)[C@@H]3C (HELM PEPTIDE1{[C=Cc1c(C)c2cc3nc(c(CC(=O)O)c4[nH]c(cc5nc(cc1[nH]2)C(C)=C5CC)c(C)c4C(=O)[*:2])[C@@H](CCC(=O)O)[C@@H]3C].[O=C(CCCN[*:1])[*:2]].R.L.N.V.G.G.T.Y.F.L.T.T.R.Q}$$$$V2.0), C=Cc1c(C)c2cc3nc(c(CC(=O)O)c4[nH]c(cc5nc(cc1[nH]2)C(C)=C5CC)c(C)c4C(=O)NCCCC(=O)N[C@@H](CC(=O)O)C(=O)N[C@@H](Cc1ccc(O)cc1)C(=O)N[C@@H](CCC(=O)O)C(=O)N[C@@H](CCSC)C(=O)N[C@@H](Cc1cnc[nH]1)C(=O)N[C@@H](CC(C)C)C(=O)N[C@@H](Cc1c[nH]c2ccccc12)C(=O)N[C@@H](Cc1c[nH]c2ccccc12)C(=O)NCC(=O)N[C@H](C(=O)N[C@@H](CCC(=O)O)C(=O)N[C@@H](CC(C)C)C(=O)O)[C@@H](C)O)[C@@H](CCC(=O)O)[C@@H]3C (HELM PEPTIDE1{[C=Cc1c(C)c2cc3nc(c(CC(=O)O)c4[nH]c(cc5nc(cc1[nH]2)C(C)=C5CC)c(C)c4C(=O)[*:2])[C@@H](CCC(=O)O)[C@@H]3C].[O=C(CCCN[*:1])[*:2]].D.Y.E.M.H.L.W.W.G.T.E.L}$$$$V2.0), C=Cc1c(C)c2cc3nc(c(CC(=O)O)c4[nH]c(cc5nc(cc1[nH]2)C(C)=C5CC)c(C)c4C(=O)NCCCC(=O)N[C@@H](CCCCN)C(=O)N[C@@H](CCCCN)C(=O)N[C@@H](CCCCN)C(=O)N[C@@H](CCCNC(=N)N)C(=O)N[C@@H](CC(C)C)C(=O)N[C@@H](CC(N)=O)C(=O)N[C@H](C(=O)NCC(=O)NCC(=O)N[C@H](C(=O)N[C@@H](Cc1ccc(O)cc1)C(=O)N[C@@H](Cc1ccccc1)C(=O)N[C@@H](CC(C)C)C(=O)N[C@H](C(=O)N[C@H](C(=O)N[C@@H](CCCNC(=N)N)C(=O)N[C@@H](CCC(N)=O)C(=O)O)[C@@H](C)O)[C@@H](C)O)[C@@H](C)O)C(C)C)[C@@H](CCC(=O)O)[C@@H]3C (HELM PEPTIDE1{[C=Cc1c(C)c2cc3nc(c(CC(=O)O)c4[nH]c(cc5nc(cc1[nH]2)C(C)=C5CC)c(C)c4C(=O)[*:2])[C@@H](CCC(=O)O)[C@@H]3C].[O=C(CCCN[*:1])[*:2]].K.K.K.R.L.N.V.G.G.T.Y.F.L.T.T.R.Q}$$$$V2.0)
